Laboratory results: patent US20110092487A1, “NOVEL 3,8-DIAZA-BICYCLO[3.2.1]OCTANE-AND 3,9-DIAZA-BICYCLO[3.3.1]-NONANE-3-CARBOXYLIC ACID ESTER DERIVATIVES AND THEIR USE AS MONOAMINE NEUROT[…]-UPTAKE INHIBITORS” (NeuroSearch A/S, priority 2008, published 2011)

Key:
Type in all cases: biochemical
[1] = biological target: T1, serotonine (5-HT) reuptake in synaptosomes (Rattus norvegicus, UniProt P31652); assay: Inhibition of 5-HT reuptake in synaptosomes; conditions: 3H-5-HT, read-out: 5-HT-uptake IC50
T1 construct: in synaptosomes as described in WO 97/16451 (NeuroSearch A/S); from tissue
From the text: (§1) Compounds of the invention may be tested for their ability to inhibit reuptake of the monoamines dopamine, noradrenaline and serotonin in synaptosomes e.g. such as described in WO 97/30997 (NeuroSearch NS) or WO 97/16451 (NeuroSearch NS). Based on the balanced activity observed in these tests the compound of the invention is considered useful for the treatment, prevention or alleviation of a disease or a disorder or a condition of a mammal, including a human, which disease, disorder or condition is responsive to inhibition of monoamine neurotransmitter re-uptake in the central nervous system.
(§2) Compounds were tested for their ability to inhibit the reuptake of the monoamine neurotransmitters dopamine (DA) noradrenaline (NA) and serotonine (5-HT) in synaptosomes as described in WO 97/16451 (NeuroSearch A/S).
(§3) The test values are given as IC50 (the concentration (μM) of the test substance which inhibits the specific binding of ^3H-DA, ^3H-NA, or ^3H-5-HT by 50%).

[2] = biological target: T2, dopamine (DA) reuptake in synaptosomes (Rattus norvegicus, UniProt P23977); assay: Inhibition of DA reuptake in synaptosomes; conditions: 3H-DA, read-out: DA-uptake IC50
T2 construct: in synaptosomes as described in WO 97/16451 (NeuroSearch A/S); from tissue
From the text: as §1, §2, §3

[3] = biological target: T3, noradrenaline (NA) reuptake in synaptosomes (Rattus norvegicus, UniProt Q63380); assay: Inhibition of NA reuptake in synaptosomes; conditions: 3H-NA, read-out: NA-uptake IC50
T3 construct: in synaptosomes as described in WO 97/16451 (NeuroSearch A/S); from tissue
From the text: as §1, §2, §3

T2 sequence (P23977 whole entry): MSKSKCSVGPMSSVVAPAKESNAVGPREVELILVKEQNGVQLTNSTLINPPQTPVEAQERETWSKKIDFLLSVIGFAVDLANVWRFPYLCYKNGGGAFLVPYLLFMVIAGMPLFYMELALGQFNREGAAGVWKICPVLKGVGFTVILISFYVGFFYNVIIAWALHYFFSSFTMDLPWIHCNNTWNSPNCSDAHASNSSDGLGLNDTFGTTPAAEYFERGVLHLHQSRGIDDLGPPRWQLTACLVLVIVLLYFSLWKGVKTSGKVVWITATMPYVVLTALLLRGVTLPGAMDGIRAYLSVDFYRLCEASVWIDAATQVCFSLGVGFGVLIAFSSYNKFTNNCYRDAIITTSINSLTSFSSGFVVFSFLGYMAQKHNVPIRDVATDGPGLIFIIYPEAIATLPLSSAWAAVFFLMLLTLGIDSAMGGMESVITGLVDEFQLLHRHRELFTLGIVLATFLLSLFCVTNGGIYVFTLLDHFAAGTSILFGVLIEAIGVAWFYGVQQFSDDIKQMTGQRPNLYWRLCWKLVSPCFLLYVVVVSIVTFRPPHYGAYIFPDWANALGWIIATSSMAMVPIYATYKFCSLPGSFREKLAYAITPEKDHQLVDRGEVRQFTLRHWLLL
T3 sequence (Q63380 1-617): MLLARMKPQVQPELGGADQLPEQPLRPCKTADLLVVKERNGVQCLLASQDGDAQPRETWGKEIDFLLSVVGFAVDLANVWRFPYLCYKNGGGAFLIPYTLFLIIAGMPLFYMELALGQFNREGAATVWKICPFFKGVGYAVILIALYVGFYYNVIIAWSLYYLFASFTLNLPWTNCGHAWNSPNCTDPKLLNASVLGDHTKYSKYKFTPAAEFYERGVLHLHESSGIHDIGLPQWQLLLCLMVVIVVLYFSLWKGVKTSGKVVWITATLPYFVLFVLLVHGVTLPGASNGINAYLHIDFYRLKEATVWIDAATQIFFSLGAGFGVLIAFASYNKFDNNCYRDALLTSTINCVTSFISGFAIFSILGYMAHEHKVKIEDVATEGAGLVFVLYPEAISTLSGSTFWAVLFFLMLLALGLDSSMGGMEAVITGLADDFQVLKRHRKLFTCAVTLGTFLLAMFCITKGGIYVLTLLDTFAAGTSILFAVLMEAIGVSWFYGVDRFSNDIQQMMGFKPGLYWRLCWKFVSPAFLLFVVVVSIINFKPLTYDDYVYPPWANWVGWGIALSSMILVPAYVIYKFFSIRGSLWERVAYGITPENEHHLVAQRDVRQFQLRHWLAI
T1 sequence (P31652 whole entry): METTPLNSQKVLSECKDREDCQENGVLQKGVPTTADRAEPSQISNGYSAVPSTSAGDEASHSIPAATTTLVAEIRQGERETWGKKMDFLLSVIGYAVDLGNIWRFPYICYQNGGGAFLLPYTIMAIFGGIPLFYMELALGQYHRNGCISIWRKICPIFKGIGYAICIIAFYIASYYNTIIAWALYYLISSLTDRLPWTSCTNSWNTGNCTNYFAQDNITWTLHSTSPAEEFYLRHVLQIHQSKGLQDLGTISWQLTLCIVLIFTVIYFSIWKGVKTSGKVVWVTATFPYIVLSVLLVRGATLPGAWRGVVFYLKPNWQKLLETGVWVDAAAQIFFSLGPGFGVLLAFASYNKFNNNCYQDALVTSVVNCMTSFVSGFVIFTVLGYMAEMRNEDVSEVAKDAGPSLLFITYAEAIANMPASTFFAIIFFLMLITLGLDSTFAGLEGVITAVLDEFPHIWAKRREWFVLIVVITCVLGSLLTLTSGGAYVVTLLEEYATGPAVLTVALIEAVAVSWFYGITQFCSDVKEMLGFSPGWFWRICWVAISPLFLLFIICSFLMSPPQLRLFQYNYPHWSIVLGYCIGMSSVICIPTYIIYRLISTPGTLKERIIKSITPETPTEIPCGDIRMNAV

With `CN1C2CCCC1CN(C(=O)Oc1ccc3ccc(=O)oc3c1)C2` [9-Methyl-3,9-diaza-bicyclo[3.3.1]nonane-3-carboxylic acid 2-oxo-2H-chromen-7-yl ester] the IC50 [1] was 40 nM, the IC50 [2] was 610 nM and the IC50 [3] was 1600 nM.
For `O=C(Oc1ccc(Cl)c(Cl)c1)N1CC2CCCC(C1)N2` [3,9-Diaza-bicyclo[3.3.1]nonane-3-carboxylic acid 3,4-dichloro-phenyl ester], the IC50 [1] was 7.8 nM, the IC50 [2] was greater than 1000 nM and the IC50 [3] was 2000 nM.
For `COc1ccc2cc(OC(=O)N3CC4CCCC(C3)N4C)ccc2c1` [9-Methyl-3,9-diaza-bicyclo[3.3.1]nonane-3-carboxylic acid 6-methoxynaphthalen-2-yl ester], the IC50 [1] was 340 nM, the IC50 [2] was 30 nM and the IC50 [3] was 24 nM.
In the case of `O=C(Oc1ccc2ccc(=O)oc2c1)N1CC2CCC(C1)N2` [3,8-Diaza-bicyclo[3.2.1]octane-3-carboxylic acid 2-oxo-2H-chromen-7-yl ester], the IC50 [1] is reported as 27 nM, the IC50 [2] is reported as 92 nM and the IC50 [3] is reported as 620 nM.
